ChEMBL document CHEMBL3734705, “Synthesis and in vitro cytotoxicity of novel C-12 substituted-14-deoxy-andrographolide derivatives as potent anti-cancer agents” (2015)
Active and inactive are the calls of the source. The rule behind the calls is not given here.

What was measured:
Format in all cases: functional
[1] = Cytotoxicity against human SF539 cells after 48 hrs by SRB assay; settings: SF-539, 48 h
SK-MEL-28 = experiment: Cytotoxicity against human SK-MEL-28 cells after 48 hrs by SRB assay; settings: SK-MEL-28, 48 h
SK-MEL-2 = experiment: Cytotoxicity against human SK-MEL-2 cells after 48 hrs by SRB assay; settings: SK-MEL-2, 48 h
[2] = Cytotoxicity against human HCC2998 cells after 48 hrs by SRB assay; settings: HCC 2998, 48 h
[3] = Cytotoxicity against human UACC62 cells after 48 hrs by SRB assay; settings: UACC-62, 48 h
[4] = Cytotoxicity against human Caki1 cells after 48 hrs by SRB assay; settings: CAKI-1, 48 h
[5] = Cytotoxicity against human NCI-ADR-RES cells after 48 hrs by SRB assay
786-0 = experiment: Cytotoxicity against human 786-0 cells after 48 hrs by SRB assay; settings: 786-0, 48 h
NCI-H522 = experiment: Cytotoxicity against human NCI-H522 cells after 48 hrs by SRB assay; settings: NCI-H522, 48 h
[6] = Cytotoxicity against human BT549 cells after 48 hrs by SRB assay; settings: BT-549, 48 h; for CC50: read-out: LC50 (the source's name)
[7] = Cytotoxicity against human SF268 cells after 48 hrs by SRB assay; settings: SF-268, 48 h
[8] = Cytotoxicity against human HOP62 cells after 48 hrs by SRB assay; settings: HOP-62, 48 h
[9] = Cytotoxicity against human HL-60(TB) cells after 48 hrs by SRB assay; settings: HL-60, 48 h; for CC50: read-out: LC50 (the source's name)
[10] = Cytotoxicity against human SW620 cells after 48 hrs by SRB assay; settings: SW-620, 48 h
[11] = Cytotoxicity against human IGROV1 cells after 48 hrs by SRB assay; settings: IGROV-1, 48 h; for CC50: read-out: LC50 (the source's name)
SK-OV-3 = experiment: Cytotoxicity against human SKOV3 cells assessed as growth inhibition at 10 uM after 48 hrs by SRB assay
Malme-3M = experiment: Cytotoxicity against human MALME-3M cells after 48 hrs by SRB assay
Hs-578T = experiment: Cytotoxicity against human Hs578T cells assessed as growth inhibition at 10 uM after 48 hrs by SRB assay
IGROV-1 = experiment: Cytotoxicity against human IGROV1 cells assessed as growth inhibition at 10 uM after 48 hrs by SRB assay
RXF 393 = experiment: Cytotoxicity against human RXF393 cells assessed as growth inhibition at 10 uM after 48 hrs by SRB assay
HL-60(TB) = experiment: Cytotoxicity against human HL-60(TB) cells assessed as growth inhibition at 10 uM after 48 hrs by SRB assay
HCC 2998 = experiment: Cytotoxicity against human HCC2998 cells assessed as growth inhibition at 10 uM after 48 hrs by SRB assay
SF-295 = experiment: Cytotoxicity against human SF295 cells assessed as growth inhibition at 10 uM after 48 hrs by SRB assay
HOP-92 = experiment: Cytotoxicity against human HOP92 cells assessed as growth inhibition at 10 uM after 48 hrs by SRB assay

C=C1CC[C@@H]2[C@](C)(COC(C)=O)[C@H](OC(C)=O)CC[C@@]2(C)[C@@H]1CC(Nc1ccc(S(=O)(=O)NC(C)=O)cc1)C1=CCOC1=O (mixture of isomers)
GI50 [1]: 2.39 µM | LC50 [1]: 26.9 µM | TGI [1]: 7.77 µM | GI50 (SK-MEL-28): 3.69 µM | LC50 (lethal concentration 50%) (SK-MEL-28): 34.2 µM | TGI (SK-MEL-28): 13.2 µM | GI50 (SK-MEL-2): 8.68 µM | LC50 (concentration causing 50% net cell kill) (SK-MEL-2): 42.1 µM | TGI (SK-MEL-2): 19.1 µM | GI50 [2]: 7.51 µM | LC50 [2]: 40.1 µM | TGI [2]: 17.3 µM | GI50 [3]: 2.59 µM | LC50 [3]: 32 µM | TGI [3]: 10.8 µM | GI50 [4]: 3.31 µM | LC50 [4]: 29 µM | TGI [4]: 11.2 µM | GI50 [5]: 2.51 µM | LC50 [5]: > 75 µM | TGI [5]: 9.14 µM | GI50 (786-0): 2.44 µM | LC50 (786-0): 26.2 µM | TGI (786-0): 7.98 µM | GI50 (NCI-H522): 1.44 µM | LC50 (NCI-H522): 24.1 µM | TGI (NCI-H522): 4.42 µM | GI50 [6]: 2.32 µM | TGI [6]: 7.93 µM | CC50 [6]: 25.1 µM | GI50 [7]: 8.78 µM | LC50 [7]: 47.9 µM | TGI [7]: 20.5 µM | GI50 [8]: 10.8 µM | LC50 [8]: 41.1 µM | TGI [8]: 21.1 µM | GI50 [9]: 2.45 µM | TGI [9]: 12 µM | CC50 [9]: > 75 µM | GI50 [10]: 1.61 µM | LC50 [10]: 9.63 µM | TGI [10]: 3.58 µM | GI50 [11]: 5.31 µM | TGI [11]: 15.4 µM | CC50 [11]: 37.1 µM

C=C1CC[C@@H]2[C@](C)(COC(C)=O)[C@H](OC(C)=O)CC[C@@]2(C)[C@@H]1C/C=C1/C(=O)OC[C@H]1OC(C)=O
GI50 [1]: 1.7 µM | LC50 [1]: 6.08 µM | TGI [1]: 3.22 µM | GI50 (SK-MEL-28): 1.75 µM | LC50 (lethal concentration 50%) (SK-MEL-28): 6.51 µM | TGI (SK-MEL-28): 3.38 µM | growth inhibition (GI) (SK-OV-3): inactive | GI50 (SK-MEL-2): 10.7 µM | LC50 (concentration causing 50% net cell kill) (SK-MEL-2): 64.3 µM | TGI (SK-MEL-2): 26.3 µM | GI50 [2]: 12.2 µM | LC50 [2]: 61.2 µM | TGI [2]: 27.3 µM | GI50 [3]: 3.37 µM | LC50 [3]: 40.7 µM | TGI [3]: 13.5 µM | GI50 [4]: 6.67 µM | LC50 [4]: 44.3 µM | TGI [4]: 19.6 µM | GI50 [5]: 4.22 µM | LC50 [5]: > 100 µM | TGI [5]: 19.8 µM | GI50 (Malme-3M): 2.97 µM | LC50 (Malme-3M): 29.9 µM | TGI (Malme-3M): 7.95 µM | GI50 (786-0): 2.02 µM | LC50 (786-0): 9.29 µM | TGI (786-0): 4.34 µM | growth inhibition (GI) (Hs-578T): inactive | GI50 (NCI-H522): 1.52 µM | LC50 (NCI-H522): 8.67 µM | TGI (NCI-H522): 3.63 µM | GI50 [6]: 2.29 µM | TGI [6]: 5.63 µM | CC50 [6]: 18.8 µM | GI50 [7]: 8.56 µM | LC50 [7]: 55.5 µM | TGI [7]: 22.7 µM | GI50 [8]: 4.4 µM | LC50 [8]: > 100 µM | TGI [8]: 21.3 µM | growth inhibition (GI) (IGROV-1): inactive | GI50 [9]: 2.61 µM | TGI [9]: 6.78 µM | CC50 [9]: 78.5 µM | GI50 [10]: 2.29 µM | LC50 [10]: 41.1 µM | TGI [10]: 5.85 µM | GI50 [11]: 2.41 µM | TGI [11]: 6.23 µM | CC50 [11]: 32 µM

C=C1CC[C@@H]2[C@](C)(COC(C)=O)[C@H](OC(C)=O)CC[C@@]2(C)[C@@H]1CC(NCCCC)C1=CCOC1=O (mixture of isomers)
growth inhibition (GI) (RXF 393): inactive

C=C1CC[C@@H]2[C@](C)(CO)[C@H](O)CC[C@@]2(C)[C@@H]1C/C=C1/C(=O)OC[C@H]1O [ANDROGRAPHOLIDE]
growth inhibition (GI) (SK-OV-3): inactive | growth inhibition (GI) (Hs-578T): inactive | growth inhibition (GI) (HL-60(TB)): inactive | growth inhibition (GI) (RXF 393): inactive | growth inhibition (GI) (IGROV-1): inactive | growth inhibition (GI) (HCC 2998): inactive | growth inhibition (GI) (SF-295): inactive | growth inhibition (GI) (HOP-92): inactive

C=C1CC[C@@H]2[C@](C)(COC(C)=O)[C@H](OC(C)=O)CC[C@@]2(C)[C@@H]1CC(Sc1ccccc1)C1=CCOC1=O (mixture of isomers)
GI50 (SK-MEL-28): 1.62 µM | LC50 (lethal concentration 50%) (SK-MEL-28): 6.68 µM | TGI (SK-MEL-28): 3.29 µM | GI50 (SK-MEL-2): 2.25 µM | LC50 (concentration causing 50% net cell kill) (SK-MEL-2): 9.36 µM | TGI (SK-MEL-2): 4.59 µM | GI50 [2]: 2.1 µM | LC50 [2]: 7.89 µM | TGI [2]: 4.08 µM | GI50 [3]: 1.3 µM | LC50 [3]: 8.07 µM | TGI [3]: 3.24 µM | GI50 [4]: 2.77 µM | LC50 [4]: > 100 µM | TGI [4]: 11.5 µM | GI50 [5]: 2.1 µM | LC50 [5]: > 100 µM | TGI [5]: 11 µM | GI50 (Malme-3M): 1.74 µM | LC50 (Malme-3M): 7.59 µM | TGI (Malme-3M): 3.63 µM | GI50 (786-0): 1.9 µM | LC50 (786-0): 6.96 µM | TGI (786-0): 3.64 µM | GI50 (NCI-H522): 1.35 µM | LC50 (NCI-H522): 6.57 µM | TGI (NCI-H522): 2.98 µM | GI50 [6]: 1.59 µM | TGI [6]: 3.99 µM | CC50 [6]: > 100 µM | GI50 [7]: 1.71 µM | LC50 [7]: 7.39 µM | TGI [7]: 3.55 µM | GI50 [8]: 2.89 µM | LC50 [8]: 14.7 µM | TGI [8]: 5.53 µM | GI50 [9]: 0.49 µM | TGI [9]: 2.27 µM | CC50 [9]: 9.76 µM | GI50 [10]: 0.71 µM | LC50 [10]: > 100 µM | TGI [10]: 3.64 µM | GI50 [11]: 1.87 µM | TGI [11]: 4.28 µM
